Experimental data published in paper PMC3242641 (European journal of medicinal chemistry, 2011).

Columns and labels:
WT HIV-1 RT [1] = target: T1, WT HIV-1 RT (Human immunodeficiency virus type 1 group M subtype B, UniProt P04585); assay type: biochemical
PBM cells [2] = system: PBM cells
HIV-1 = assay type: cell-based
wild-type HBV = test: Anti-HBV activity, HepG2 AD38 system; assay type: cell-based; conditions: read-out: Anti-HBV activity EC50
human PBM cells = conditions: 4 h at 50 μM, PHA activated human PBM cells, 37 °C
WT HIV-1 RT [3] = target: T1, WT HIV-1 RT; conditions: read-out: K, dNTP; cited from earlier work
PBM cells [4] = test: Cytotoxicity in PBM cells; conditions: cell type not named in the sentence (PBM, CEM and Vero were tested)

For `Nc1ccn([C@@H]2CS[C@H](COP(=O)(O)OP(=O)(O)OP(=O)(O)O)O2)c(=O)n1` [Compound 3TC-TP], the “Incorporation, fold better than the L-3′-azido-ddNTPs” value (WT HIV-1 RT [1]) was 12-500 fold.
“9-(3-Azido-2,3-dideoxy-β-L-ribofuranosyl)-2-fluoro-6-aminopurine [Compound 26]” gave an IC50 (PBM cells [2]) of over 100 µM, an EC90 (HIV-1; read-out: Anti-HIV activity EC90) of over 100 µM and an EC50 (wild-type HBV) of over 100 µM. It also gave an IC50 (CEM cells) of over 100 µM and an IC50 (Vero cells) of over 100 µM.
For `CNc1ncnc2c1ncn2[C@@H]1C[C@@H](N=[N+]=[N-])[C@H](CO)O1` [Compound 12, 9-(3-Azido-2,3-dideoxy-β-L-ribofuranosyl)-6-methylamino-9H-purine], the “Amount of intracellular nucleoside triphosphate (TP) detected” value (shortened to “Amount … (TP) detected”) (human PBM cells) was “below the level of detection”.
In the case of `[N-]=[N+]=N[C@@H]1C[C@@H](n2cnc3c(Cl)ncnc32)O[C@H]1CO` [Compound 7, 9-(3-Azido-2,3-dideoxy-β-L-ribofuranosyl)-6-chloro-9H-purine], the “Amount … (TP) detected” value (human PBM cells) is reported as “no detectable TPs”.
For `Nc1ccn([C@H]2C[C@H](O)[C@@H](COP(=O)(O)OP(=O)(O)OP(=O)(O)O)O2)c(=O)n1` [dCTP], the Kd (WT HIV-1 RT [3]) is listed as 1.1 ± 0.4 µM.
With `CCOC(=O)[C@H](C)NP(=O)(OC[C@@H]1O[C@H](n2cc(C)c(=O)[nH]c2=O)C[C@H]1N=[N+]=[N-])Oc1ccccc1` (stereo partly drawn) [Compound 28, 1-(3′-Azido-2′, 3′-dideoxy-β-L-thymidine)-O-(phenyl-[ethoxyl-L-alaniny])-phosphate] the “Anti-HIV-1 activity, in words” value (HIV-1) was “inactive”.
For `COc1ncnc2c1ncn2[C@@H]1C[C@@H](N=[N+]=[N-])[C@H](CO)O1` [Compound 9, 9-(3-Azido-2,3-dideoxy-β-L-ribofuranosyl)-6-methoxyl-9H-purine], the “Amount … (TP) detected” value (human PBM cells) was “below the level of detection”.
For `CCOC(=O)[C@H](C)NP(=O)(OC[C@@H]1O[C@H](n2cnc3c(O)nc(N)nc32)C[C@H]1N=[N+]=[N-])Oc1ccccc1` (stereo partly drawn) [Compound 16, 3′-Azido-2′, 3′-dideoxy-β-L-guanosine-5′-O-[phenyl-(ethoxy-L-alaninyl)]-phosphate], the “Anti-HIV-1 activity, in words” value (HIV-1) was “inactive”.
In the case of `CCOC(=O)[C@H](C)NP(=O)(OC[C@@H]1O[C@H](n2cnc3c(Cl)nc(N)nc32)C[C@H]1N=[N+]=[N-])Oc1ccccc1` (stereo partly drawn) [Compound 18, 9-(3-Azido-2,3-dideoxy-β-L-ribofuranosyl)-2-amino-6-chloropurine-5-O-[phenyl-(ethoxy-L-alaninyl)]-phosphate], the “Amount of intracellular intact prodrug detected” value (human PBM cells) is reported as 12 fmol/10^6 cells.
For `CCOC(=O)[C@H](C)NP(=O)(OC[C@@H]1O[C@H](n2cnc3c(N)nc(N)nc32)C[C@H]1N=[N+]=[N-])Oc1ccccc1` (stereo partly drawn) [Compound 22, 9-(3-Azido-2,3-dideoxy-β-L-ribofuranosyl) -2,6-diaminopurine-5-O-(phenyl-[ethoxyl-L-alaninyl])-phosphate], the “Observed toxicity (no toxicity up to)” value (PBM cells [4]) was over 100 µM.
With `[N-]=[N+]=N[C@@H]1C[C@@H](n2cnc3c(Cl)nc(N)nc32)O[C@H]1CO` [Compound 17, 9-(3-Azido-2,3-dideoxy-β-L-ribofuranosyl)-2-amino-6-chloropurine] the “Amount … (TP) detected” value (human PBM cells) was “no detectable TPs”.
For `Cc1cn([C@H]2C[C@H](N=[N+]=[N-])[C@@H](CO)O2)c(=O)[nH]c1=O` [Compound 27, 3′-Azido-2′-3′-dideoxy-β-L-thymidine], the “Anti-HIV-1 activity, in words” value (HIV-1) was “inactive”.
With `CCOC(=O)[C@H](C)NP(=O)(OC[C@@H]1O[C@H](n2cnc3c(N)ncnc32)C[C@H]1N=[N+]=[N-])Oc1ccccc1` (stereo partly drawn) [Compound 11, 3′-Azido-2′, 3′-dideoxy-β-L-adenosine-5′-O-[phenyl-(ethoxy-L-alaninyl)]-phosphate] the “Increase in anti-HIV activity versus 10” value (HIV-1) was 45 fold.
